# Test results: ChEMBL document CHEMBL4665642, “Anticancer profile of newly synthesized BRAF inhibitors possess 5-(pyrimidin-4-yl)imidazo[2,1-b]thiazole scaffold” (Bioorg Med Chem, 2019)
# What was measured:
# Format in all cases: functional
# Details in all cases: read-out: Activity
# 786-0 = assay: Cytotoxicity against human 786-0 cells assessed as cell viability at 10 uM incubated for 48 hrs by sulforhodamine B assay relative to control
# NCI/ADR-RES = assay: Cytotoxicity against human NCI/ADR-RES cells assessed as cell viability at 10 uM incubated for 48 hrs by sulforhodamine B assay relative to control
# RPMI-8226 = assay: Cytotoxicity against human RPMI-8226 cells assessed as cell viability at 10 uM incubated for 48 hrs by sulforhodamine B assay relative to control
# HCC 2998 = assay: Cytotoxicity against human HCC 2998 cells assessed as cell viability at 10 uM incubated for 48 hrs by sulforhodamine B assay relative to control
# UACC-62 = assay: Cytotoxicity against human UACC-62 cells assessed as cell viability at 10 uM incubated for 48 hrs by sulforhodamine B assay relative to control
# PC-3 = assay: Cytotoxicity against human PC-3 cells assessed as cell viability at 10 uM incubated for 48 hrs by sulforhodamine B assay relative to control
# HOP-62 = assay: Cytotoxicity against human HOP-62 cells assessed as cell viability at 10 uM incubated for 48 hrs by sulforhodamine B assay relative to control
# Malme-3M = assay: Cytotoxicity against human Malme-3M cells assessed as cell viability at 10 uM incubated for 48 hrs by sulforhodamine B assay relative to control
# COLO 205 = assay: Cytotoxicity against human COLO 205 cells assessed as cell viability at 10 uM incubated for 48 hrs by sulforhodamine B assay relative to control
# MDA-MB-435 = assay: Cytotoxicity against human MDA-MB-435 cells assessed as cell viability at 10 uM incubated for 48 hrs by sulforhodamine B assay relative to control
# NCI-H322M = assay: Cytotoxicity against human NCI-H322M cells assessed as cell viability at 10 uM incubated for 48 hrs by sulforhodamine B assay relative to control
# CCRF-CEM = assay: Cytotoxicity against human CCRF-CEM cells assessed as cell viability at 10 uM incubated for 48 hrs by sulforhodamine B assay relative to control
# NCI-H522 = assay: Cytotoxicity against human NCI-H522 cells assessed as cell viability at 10 uM incubated for 48 hrs by sulforhodamine B assay relative to control
# NCI-H23 = assay: Cytotoxicity against human NCI-H23 cells assessed as cell viability at 10 uM incubated for 48 hrs by sulforhodamine B assay relative to control
# UACC-257 = assay: Cytotoxicity against human UACC-257 cells assessed as cell viability at 10 uM incubated for 48 hrs by sulforhodamine B assay relative to control
# SW-620 = assay: Cytotoxicity against human SW-620 cells assessed as cell viability at 10 uM incubated for 48 hrs by sulforhodamine B assay relative to control
# KM12 = assay: Cytotoxicity against human KM12 cells assessed as cell viability at 10 uM incubated for 48 hrs by sulforhodamine B assay relative to control
# K562 = assay: Cytotoxicity against human K562 cells assessed as cell viability at 10 uM incubated for 48 hrs by sulforhodamine B assay relative to control
# OVCAR-5 = assay: Cytotoxicity against human OVCAR-5 cells assessed as cell viability at 10 uM incubated for 48 hrs by sulforhodamine B assay relative to control
# ACHN = assay: Cytotoxicity against human ACHN cells assessed as cell viability at 10 uM incubated for 48 hrs by sulforhodamine B assay relative to control
# U-251 = assay: Cytotoxicity against human U-251 cells assessed as cell viability at 10 uM incubated for 48 hrs by sulforhodamine B assay relative to control
# SF-295 = assay: Cytotoxicity against human SF-295 cells assessed as cell viability at 10 uM incubated for 48 hrs by sulforhodamine B assay relative to control
# SNB-75 = assay: Cytotoxicity against human SNB-75 cells assessed as cell viability at 10 uM incubated for 48 hrs by sulforhodamine B assay relative to control
# SNB-19 = assay: Cytotoxicity against human SNB-19 cells assessed as cell viability at 10 uM incubated for 48 hrs by sulforhodamine B assay relative to control
# IGROV-1 = assay: Cytotoxicity against human IGROV-1 cells assessed as cell viability at 10 uM incubated for 48 hrs by sulforhodamine B assay relative to control
# EKVX = assay: Cytotoxicity against human EKVX cells assessed as cell viability at 10 uM incubated for 48 hrs by sulforhodamine B assay relative to control
# OVCAR-8 = assay: Cytotoxicity against human OVCAR-8 cells assessed as cell viability at 10 uM incubated for 48 hrs by sulforhodamine B assay relative to control
# CAKI-1 = assay: Cytotoxicity against human CAKI-1 cells assessed as cell viability at 10 uM incubated for 48 hrs by sulforhodamine B assay relative to control
# SF-268 = assay: Cytotoxicity against human SF-268 cells assessed as cell viability at 10 uM incubated for 48 hrs by sulforhodamine B assay relative to control
# SK-OV-3 = assay: Cytotoxicity against human SK-OV-3 cells assessed as cell viability at 10 uM incubated for 48 hrs by sulforhodamine B assay relative to control
# HOP-92 = assay: Cytotoxicity against human HOP-92 cells assessed as cell viability at 10 uM incubated for 48 hrs by sulforhodamine B assay relative to control
# UO-31 = assay: Cytotoxicity against human UO-31 cells assessed as cell viability at 10 uM incubated for 48 hrs by sulforhodamine B assay relative to control
# MOLT-4 = assay: Cytotoxicity against human MOLT-4 cells assessed as cell viability at 10 uM incubated for 48 hrs by sulforhodamine B assay relative to control
# TK-10 = assay: Cytotoxicity against human TK-10 cells assessed as cell viability at 10 uM incubated for 48 hrs by sulforhodamine B assay relative to control
# SN12C = assay: Cytotoxicity against human SN12C cells assessed as cell viability at 10 uM incubated for 48 hrs by sulforhodamine B assay relative to control
# HCT-116 = assay: Cytotoxicity against human HCT-116 cells assessed as cell viability at 10 uM incubated for 48 hrs by sulforhodamine B assay relative to control
# OVCAR-3 = assay: Cytotoxicity against human OVCAR-3 cells assessed as cell viability at 10 uM incubated for 48 hrs by sulforhodamine B assay relative to control
# OVCAR-4 = assay: Cytotoxicity against human OVCAR-4 cells assessed as cell viability at 10 uM incubated for 48 hrs by sulforhodamine B assay relative to control
# SK-MEL-5 = assay: Cytotoxicity against human SK-MEL-5 cells assessed as cell viability at 10 uM incubated for 48 hrs by sulforhodamine B assay relative to control
# M14 = assay: Cytotoxicity against human M14 cells assessed as cell viability at 10 uM incubated for 48 hrs by sulforhodamine B assay relative to control
# BT-549 = assay: Cytotoxicity against human BT-549 cells assessed as cell viability at 10 uM incubated for 48 hrs by sulforhodamine B assay relative to control
smiles,measurement,setting,value
O=S(=O)(NCCCNc1nccc(-c2c(-c3cccc(F)c3)nc3sccn23)n1)c1cccc2ccccc12,viability at 10 µM,786-0,52.9%
same,viability at 10 µM,NCI/ADR-RES,47.1%
same,viability at 10 µM,RPMI-8226,44.9%
same,viability at 10 µM,HCC 2998,16.3%
same,viability at 10 µM,UACC-62,24.3%
same,viability at 10 µM,PC-3,41.2%
same,viability at 10 µM,HOP-62,80.7%
same,viability at 10 µM,Malme-3M,78.7%
same,viability at 10 µM,COLO 205,21.5%
same,viability at 10 µM,MDA-MB-435,22.6%
same,viability at 10 µM,NCI-H322M,81.6%
same,viability at 10 µM,CCRF-CEM,38.5%
same,viability at 10 µM,NCI-H522,56.3%
same,viability at 10 µM,NCI-H23,66.2%
same,viability at 10 µM,UACC-257,72.8%
same,viability at 10 µM,SW-620,42.1%
same,viability at 10 µM,KM12,26%
same,viability at 10 µM,K562,15.2%
same,viability at 10 µM,OVCAR-5,80.9%
same,viability at 10 µM,ACHN,34.7%
same,viability at 10 µM,U-251,59.1%
same,viability at 10 µM,SF-295,34.6%
same,viability at 10 µM,SNB-75,86.5%
same,viability at 10 µM,SNB-19,69%
same,viability at 10 µM,IGROV-1,22.3%
same,viability at 10 µM,EKVX,56.1%
same,viability at 10 µM,OVCAR-8,38.5%
same,viability at 10 µM,CAKI-1,29.1%
same,viability at 10 µM,SF-268,44.5%
same,viability at 10 µM,SK-OV-3,65.8%
same,viability at 10 µM,HOP-92,94.6%
same,viability at 10 µM,UO-31,20%
same,viability at 10 µM,MOLT-4,29.3%
same,viability at 10 µM,TK-10,71.7%
same,viability at 10 µM,SN12C,46.9%
same,viability at 10 µM,HCT-116,32.4%
same,viability at 10 µM,OVCAR-3,68.7%
same,viability at 10 µM,OVCAR-4,40.1%
same,viability at 10 µM,SK-MEL-5,31.8%
same,viability at 10 µM,M14,42.7%
same,viability at 10 µM,BT-549,65%
O=S(=O)(NCCNc1nccc(-c2c(-c3cccc(F)c3)nc3sccn23)n1)c1ccc(Br)cc1,viability at 10 µM,786-0,50.6%
same,viability at 10 µM,NCI/ADR-RES,61.8%
same,viability at 10 µM,RPMI-8226,58%
same,viability at 10 µM,HCC 2998,79.5%
same,viability at 10 µM,UACC-62,35.8%
same,viability at 10 µM,PC-3,51%
same,viability at 10 µM,HOP-62,83.3%
same,viability at 10 µM,Malme-3M,71.1%
same,viability at 10 µM,COLO 205,36.4%
same,viability at 10 µM,MDA-MB-435,21.3%
same,viability at 10 µM,NCI-H322M,61%
same,viability at 10 µM,CCRF-CEM,51%
same,viability at 10 µM,NCI-H522,62.6%
same,viability at 10 µM,NCI-H23,72.6%
same,viability at 10 µM,UACC-257,82%
same,viability at 10 µM,SW-620,54.8%
same,viability at 10 µM,KM12,42.5%
same,viability at 10 µM,K562,38.7%
same,viability at 10 µM,OVCAR-5,83.6%
same,viability at 10 µM,ACHN,30.2%
same,viability at 10 µM,U-251,53.4%
same,viability at 10 µM,SF-295,58.7%
same,viability at 10 µM,SNB-75,75.3%
same,viability at 10 µM,SNB-19,59.3%
same,viability at 10 µM,IGROV-1,8.47%
same,viability at 10 µM,EKVX,59.5%
same,viability at 10 µM,OVCAR-8,45.5%
same,viability at 10 µM,CAKI-1,35.1%
same,viability at 10 µM,SF-268,53%
same,viability at 10 µM,SK-OV-3,77.3%
same,viability at 10 µM,HOP-92,76.7%
same,viability at 10 µM,UO-31,21.2%
same,viability at 10 µM,MOLT-4,35.7%
same,viability at 10 µM,TK-10,68.8%
same,viability at 10 µM,SN12C,42.9%
same,viability at 10 µM,HCT-116,33.9%
same,viability at 10 µM,OVCAR-3,62.4%
same,viability at 10 µM,OVCAR-4,47%
same,viability at 10 µM,SK-MEL-5,31.5%
same,viability at 10 µM,M14,52.3%
same,viability at 10 µM,BT-549,63.2%
